Data: PMC5988692, “AZ304, a novel dual BRAF inhibitor, exerts anti-tumour effects in colorectal cancer independently of BRAF genetic status” (British Journal of Cancer, 2018)
Like-named read-outs stand apart in the source and are kept apart here.

Key:
[1] = Xenograft study, animal health and body weight; assay type: in vivo; settings: RKO and Caco-2 xenograft mice, 10 days treatment
Method: All in vivo experiments were performed in accordance with Institutional Review Board of China Medical University guidelines. Female 4–6 weeks old athymic BALB/c nude mice were purchased from Shanghai SLAC Laboratory Animal Centre (Shanghai, China). RKO/Caco-2 cells (1 × 10^7) in 200 μl PBS were injected subcutaneously into the right scapular region of mice. […] Tumours were measured with a caliper every 2 days, so did body weights. Tumour volume was calculated using the formula V = 1/2 (width^2 × length). Mice were terminated by CO2 inhalation when the tumour diameters reached 1.5 cm, according to the protocol filed with the Guidance of Institutional Animal Care and Use Committee of China Medical University.
Supplementary Figure 2 Weights of xenografts from RKO and Caco-2 cells was measured every 2 days.

[2] = system: RKO, HT-29, DiFi and Caco-2 cells; assay: EdU incorporation assay; assay type: cell-based, human; settings: four CRC cell lines, 24 h
Method: Selected colorectal cancer cells were seeded into 96-well plates (2000–5000 cells per well). After incubation for 24 h, the cells were pretreated with DMSO or AZ304 for 24 h. Then 50 μM of 5-ethynyl-2′-deoxyuridine (EdU, Ribobio, Guangzhou, China) was added to each well and the cells were incubated at 37 °C for 2 h before being fixed with 4% formaldehyde for 30 min and incubated with 2 mg/ml glycine for 5 min. After being washed with PBS for five times, the cells were reacted with 100 μL of 1 × Apollo reaction cocktail for 30 min. Afterwards, the 1 × Hoechst 33342 (5 μg/mL) was used to stain the nuclei.
Two V600E mutant BRAF cell lines (RKO, HT-29) and two wild-type BRAF cell lines (DiFi, Caco-2) were treated with DMSO or increasing concentrations of AZ304 (0, 0.1, 1, 10, 100 μM), for 48 h (a) and 72 h (b). Viable cells were determined by MTT assay. c EdU incorporation assay. Four cells lines from (a) were treated with DMSO or indicated AZ304 for 24 h, followed by incubation with EdU and Hoechst in sequence. […] Expression levels of phosphorylation ERK were analysed by Western blot. e BRAF mutant cell line RKO, and BRAF wild type cell line Caco-2 were treated with DMSO or 2 uM AZ304 for the indicated times. Expression levels of phosphorylation ERK were analysed by Western blot. […] Cell viability was determined by MTT assay

HT-29 cells = assay: MTT proliferation assay; assay type: cell-based; settings: Homo sapiens, HT-29, BRAF MT (V600E), KRAS WT
Method: (§1) The proliferation assays in selected colorectal cancer cell lines were measured using a 3-(4,5-dimethyl thiazol-2-yl)-2,5-diphenyl tetrazolium bromide (MTT) assay. First of all, cultured cells were seeded into 96-well plates (2000–5000 cells per well). After incubation for 24 h, the cells were pretreated with DMSO or AZ304 for 1 h. […] Cells were incubated for a further 48 or 72 h. For EGF stimulating assay, cells were incubated in reduced serum medium overnight and then treated with AZ304 or AZ304 + EGF (20 ng/ml) for 72 h. Twenty microliter of MTT solution (5 mg/ml) was added to each well followed by 4 h incubation at 37 °C. The cell culture medium was removed and the cells were lysed in 200 μl dimethylsulphoxide (DMSO) and the results were measured using a microplate reader (Model 550, Bio-Rad Laboratories, Hercules, CA, USA).

DiFi cells = assay: MTT proliferation assay; assay type: cell-based; settings: Homo sapiens, BRAF WT, KRAS WT
Method: as §1

Caco-2 cells = assay: MTT proliferation assay; assay type: cell-based; settings: Homo sapiens, Caco-2, BRAF WT, KRAS WT
Method: as §1

RKO cells = assay: MTT proliferation assay; assay type: cell-based; settings: Homo sapiens, BRAF MT (V600E), KRAS WT
Method: as §1

A375 cells = assay: Western blot p-p38; assay type: cell-based, human; settings: A375 (BRAF V600E), 75 min
Method: For western-blotting in A375, A549 and MC-F7 cell lines, the detailed method was described in ref.[18] […] For western-blot in selected CRC cell lines, the cells were collected after treatment for indicated time and washed twice with cold PBS. Then cells were lysed in 1% Triton lysis buffer (50 mmol/L Tris-HCl, pH 7.4, 10 mmol/L EDTA, 100 mmol/L NaF, 150 mmol/L NaCl, 1% Triton X-100, 1 mmol/L PMSF 1 mmol/L Na3VO4 and 2 μg/mL aprotinin). After sonication and centrifugation, samples were quantified with the Lowry method. Next, all the protein samples were boiled at 95 °C for 5 min with 3× sampling buffer. After that, all the lysate samples were resolved by SDS polyacrylamide gel electrophoresis (SDS-PAGE) and followed by western blotting which means electronically transferred to nitrocellulose membranes. […] After washing for another four times, the protein bands were detected with enhanced chemiluminescence reagent (SuperSignal Western Pico Chemiluminescent Substrate; Pierce, Rockford, IL, USA) and visualised with the Electrophoresis Gel Imaging Analysis System (DNR Bio-Imaging Systems, Jerusalem, Israel).
Cells were incubated with DMSO or AZ304 for 75 min and p-ERK levels were determined using a p-ERK antibody based ELISA. […] Cells were incubated with DMSO or AZ304 (±EGF) for 75 min and p-ERK levels were determined using a p-ERK antibody based ELISA. […]

[3] = 48 h, read-out: GI50 (μM) of AZ304 48 h
[4] = 72 h, read-out: GI50 (μM) of AZ304 72 h

## COc1ccc2c(Nc3cc(NC(=O)c4cccc(C(C)(C)C#N)c4)ccc3C)ncnc2c1 [AZ304]
[1]
  tolerability (animal health, body weight): without obvious toxicity
[2]
  DNA replication (EdU-positive cells): suppressed DNA replication in CRC cells at all concentrations
HT-29 cells; [3]
  GI50: 3.9 µM
HT-29 cells; [4]
  GI50: 0.389 µM
DiFi cells; [3]
  GI50: 4.99 µM
DiFi cells; [4]
  GI50: 0.635 µM
Caco-2 cells; [3]
  GI50: 1.76 µM
Caco-2 cells; [4]
  GI50: 0.377 µM
RKO cells; [3]
  GI50: 4.54 µM
RKO cells; [4]
  GI50: 0.503 µM
A375 cells
  effect on p-p38: potently inhibited p-p38
